How the values were obtained:
CLL cells = details: in vitro treatment; Buchner 2009, Gobessi 2009; cited from earlier work
healthy B cells = details: B cells from healthy donors; anti-μ 10 μg/ml plus H2O2 […], 10 min
Description: Cryopreserved PBMCs, 23 from CLL patients and 7 from healthy donors, were rapidly thawed in a 37° C. water bath. 1 mL of pre-warmed thawing media (PBS 1% FBS, 2 mM EDTA) was added dropwise to each of the cryovials. Thawed cells were transferred to a tube containing 8 mL thawing media. Tubes were inverted and centrifuged at 200×g for 8 minutes at room temperature. Supernatant was decanted, cell pellets were resuspended in 1 mL RPMI 1640 1% FCS and filtered over 70 um nylon mesh (BD Falcon) to remove cell clumps and debris. 11 mL of additional RPMI 1640 1% FCS was added to the samples to wash. […]
Supernatant was aspirated and each sample was resuspended in 4 mL of PBS. […] The supernatant was decanted and all samples were resuspended at a density of 2.4×10^6 cells/mL, using a volume specific to the number of cells determined from the cell counting procedure. […]
“Daughter” plates designated for treatment with modulators for or apoptosis inducing agents were generated from the “mother” plate with the use of a Liquidator 96-well pipettor (Rainin) Plates designated for treatment with modulators for phospho-readouts received 250 uL (6.0×10^5 cells) of cell suspension per well, and plates designated for treatment with apoptosis inducing agents received 333 uL (8.0×10^5 cells) of cell suspension per well. […]
Antibody cocktails for signaling and apoptosis readouts were prepared in FACS Buffer. […]

## COc1cc(Nc2ncc(F)c(Nc3ccc4c(n3)NC(=O)C(C)(C)O4)n2)cc(OC)c1OC [R406]
CLL cells
  apoptotic response of CLL cells: mediated an apoptotic response

## OO [H2O2, hydrogen peroxide]
Healthy B cells
  effect of H2O2 on anti-μ-mediated BCR signaling: further potentiated

From patent US20100297676A1, “METHODS FOR DIAGNOSIS, PROGNOSIS AND METHODS OF TREATMENT” (Nodality, Inc., priority 2009, published 2010)
